The source of these data is PMC8103899, “Allyl Isothiocyanate: A TAS2R38 Receptor-Dependent Immune Modulator at the Interface Between Personalized Medicine and Nutrition” (Frontiers in Immunology, 2021).

Each structure is given as a SMILES string. Like-named read-outs stand apart in the source and are kept apart here.

Test [1] relates to TNF-alpha mRNA. Nature of the test: TNF-alpha mRNA expression in LPS stimulated PBMC (qRT-PCR). It is filed as cell-based, human. As to conditions: LPS stimulated PBMC from PAV/PAV subjects, transient. The method, then: (§1) Figure 5 In bacterial LPS stimulated PBMC, AITC triggers MAPK activation and TNF-α inhibition in dependence of the TAS2R38 genotype. PBMC were exposed to AITC or 0.01% DMSO (SC) together with 100 pg/mL LPS. (A) Representative immunoblots are given. Densitometric analysis was done to quantify the immunoblots using Quantity One software (Bio-Rad, Munich, Germany) and normalized against β-actin, which was used as loading control. (B, C) Cytokine secretion at 3 and 24 h was analyzed using ELISA kits. (D) Time kinetic of TNF-α mRNA expression. Results are means + SD and given as fold of the solvent control. Results were calculated relative to the corresponding solvent control (SC, 0.01% DMSO). Significance of difference was determined compared to the respective SC by one-way ANOVA, *p < 0.05, **p < 0.01.

Test [2] relates to TRPA1. As to conditions: TRPA1 overexpressing cells, read-out: EC50 for the activation of TRPA1, cited from earlier work.
Test [3] has as its system NO production. Nature of the test: Nitric oxide detection by flow cytometry (DAF-FM) in PBMC. As to conditions: for NO production increase: monocytes, 5h. It is filed as cell-based, human. The method, then: PBMC (0.25x10^6) were suspended in DMEM medium and exposed to solvent control, AITC or 100 µM of the NO-donor SNAP (positive control) in 96-well plates for 30-270 min in a humidified incubator (5% CO2, 37°C). After that, cells were then loaded with 0.5 µM DAF-FM diacetate prepared in HBSS buffer for another 30 min. DAF-FM loading at this low concentration allows reducing the background fluorescence and improving the signal to noise ratio in a single cell ([34]). After incubation, the cells were washed twice with PBS, followed by 30 min. de-esterification of the intracellular diacetates in the dark at room temperature. Fluorescence signals (ex 488 nm, em 530± 30 nm) were monitored using a FACSCalibur™ flow cytometer. The median fluorescence intensity (MFI) of each sample was calculated using FlowJo software (Ashland, Oregon, USA). DAF-FM-DA has a detection limit of about 5 nM NO ([35]).
Figure 3 AITC stimulates NO production and exerts bactericidal activity in dependence of the TAS2R38 haplotype. PBMC were isolated from AVI/AVI or PAV/PAV genotype subjects and (A) exposed to 0.01% DMSO (SC), AITC, the NO-donor SNAP (positive control), or the NO scavenger cPTIO for the indicated time points. Then, 0.5 µM DAF-FM diacetate was added for 30 min. Fluorescence signals (ex 488 nm, em 530± 30 nm) were monitored using a FACSCalibur™. The median fluorescence intensity (MFI) of each sample was calculated using FlowJo software (Ashland, Oregon, USA). A representative histogram of one PAV/PAV subject is shown on the top, (B) incubated with E. coli K-12 at MOI 0.5 and exposed to 0.01% DMSO (SC) or AITC for 120 min at 37°C. Cell membrane potential depolarization was determined by staining bacteria with 1 µg/ml DiBAC4(3) for 10 min, in the dark at room temperature. Representative scattergrams of E. coli K-12 and PBMC treated with E. coli K-12 are given. An FSC/SSC plot was first made and E. coli K-12 cells gated. The population was copied to a SSC/DiBAC4(3)-scatterplot identifying the percentage of depolarized bacteria. Bars are mean value + SD, *p < 0.05, **p < 0.01. Significance of difference was calculated relative to the respective control by one-way ANOVA. […]
(In general: In flow cytometry, cells or beads pass a laser one at a time.)

Test [4] has as its system E. coli K-12. Nature of the test: Bactericidal activity of PBMC co-incubated with E. coli K-12 (DiBAC4(3) depolarization). The test is classed as cell-based, Escherichia coli. As to conditions: MOI 0.5. The method, then: E. coli K-12 bacteria were grown in Luria-Bertani medium at 37°C to mid-logarithmic-phase as determined by OD600. Next, PBMC (1x10^6/mL) were incubated with E. coli K-12 at MOI 0.5 in RPMI 1640 medium supplemented with 2% heat-inactivated fetal calf serum and exposed to the test compounds for 120 min in a humidify condition (5% CO2, 37°C). Thereafter, 1 µg/mL of the membrane potential dye DiBAC4(3) was added and incubated for 10 min at room temperature in the dark. Subsequently, the cells were washed once with PBS and centrifuged at 4500 x g for 10 min. The percentage of depolarized bacteria was determined using a FACSCalibur™ flow cytometer with an excitation wavelength of 493 nm.
Figure 3 AITC stimulates NO production and exerts bactericidal activity in dependence of the TAS2R38 haplotype. […] Fluorescence signals (ex 488 nm, em 530± 30 nm) were monitored using a FACSCalibur™. The median fluorescence intensity (MFI) of each sample was calculated using FlowJo software (Ashland, Oregon, USA). […] Cell membrane potential depolarization was determined by staining bacteria with 1 µg/ml DiBAC4(3) for 10 min, in the dark at room temperature. […] Significance of difference was calculated relative to the respective control by one-way ANOVA. […]

Test [5] concerns TAS2R38-PAV receptor. On the set-up: method as in PMID 20022913. As to conditions: cited from earlier work.
Test [6] concerns TNF-α. Nature of the test: TNF-α secretion of PBMC (ELISA), LPS stimulated or unstimulated. The test is classed as cell-based, human. The method, then:
PBMC (1x10^6/mL) cultured in RPMI 1640 medium supplemented with 10% heat-inactivated fetal calf serum, 2 mM L-glutamine, 100 U/ml penicillin/streptomycin were stimulated with 0.5 ng/ml CD3/CD28 MAbs and exposed to the test compounds. After 24 h, supernatants were collected and stored at -80°C until analysis using the human MACSplex cytokine 12-kit (Miltenyi Biotec GmbH, Bergisch Gladbach, Germany) according to manufacturer’s protocol to quantify cytokine secretion. Supernatants were also used for photometric quantification by the human TNF-alpha or IL-1β ELISA Ready-Set-Go kit from eBIoscience (Frankfurt, Germany) according to the manufacturer’s instructions.
as §1

As a reminder, the EC50 is the concentration needed to bring the measured effect to its halfway point. Broadly, the inhibition is how much of the control response was suppressed. For `C=CCN=C=S` [AITC, allyl isothiocyanate], the “inhibition of TNF-alpha mRNA expression” value in test [1] is given as 50%. The EC50 in test [2] (ref 45) was […]; in test [2] (ref 46) it was […]. Moreover, in test [3] (AITC ≥ 10 µM, 1h, PAV/PAV (not AVI/AVI)), the “NO in monocyte cell population” value is recorded as “insignificant increase”. The “NO production in the lymphocyte population” value in test [3] (PAV/PAV vs AVI/AVI, NO only detected after 5h at 100 µM AITC) is “no differential regulation”. Also, the NO production increase in test [3] (AVI/AVI, 100 µM AITC) is recorded as 41%; in test [3] (PAV/PAV, 3 µM AITC), 46%. Further, the figures for the bactericidal activity result in test [4] (AVI/AVI cells) and in test [4] (PAV/PAV cells) were “no effect” and “increased bactericidal activity”, respectively. In addition, the “activation of TAS2R38 taster variant among 25 TAS2Rs” value in test [5] (HEK293T-Gα16gust44 cells transiently transfected) is “selectively triggered the taster variant”. In addition, the “activation of the TAS2R38-PAV receptor” value in test [5] is on record as “activated”. In addition, the threshold concentration in test [5] (heterologous expressed TAS2R38-PAV, in vitro) is […]. Besides, the TNF-α release result in test [6] (AITC exposure without inflammatory stimulus (data not shown)) is “no change”. Moreover, the inhibition at 3 µM in test [6] (Homo sapiens, 3 h LPS activated PBMC, 3 µM AITC, dependent on TAS2R38 receptor functionality, read-out: peak inhibition of TNF-α secretion) came to 54%. Also, the TNF-α secretion entry in test [6] (LPS, prolonged incubation 24 h, PAV/PAV group, all tested concentrations) is on record as “abolished the effect”.
